The results in this text go back to patent US8822531B2, “Honokiol analogs and their use in treating cancers” (priority 2007, dated 2014).

Several values for one entry are separate records, joined by “and”; a condition that tells them apart may be missing. Equal entries are not always repeated.

For the assay, the system named is tumor cells. The assay can be described thus: Tumor volume in nude mice injected subcutaneously with tumor cells, treated with honokiol diepoxide. The format is in vivo. The conditions noted are these: 40 mg/kg daily intraperitoneally. On the procedure: Nude mice were injected subcutaneously with approximately one million tumor cells. Once tumors became visible, they were treated with 40 mg/kg daily of honokiol diepoxide. The compound was reconstituted in 100 microliters of ethanol and diluted with 900 microliters of 20% Intralipid, and 0.3 ml of this mixture was injected intraperitoneally daily. Tumors were measured with vernier calipers, and tumor volume was calculated using the formula (width^2×length)0.52, where width is the smallest dimension, 2 represents squared, and […].

`Oc1ccc(-c2cc(CC3CO3)ccc2O)cc1CC1CO1` (stereo not shown) [Honokiol Epoxide, honokiol diepoxide]: the “Average (tumor volume)” value (group average, in mm³ (unit assumed)) amounted to 433.3632. The “Tumor Volume” value (individual animal, volume = (width^2 x length) x 0.52, 40 mg/kg, in mm³ (unit assumed)) is 385.2 and 914.8568 and 0. The “W (tumor width)” value (individual animal, vernier calipers, 40 mg/kg) was 8.59 and 11 and 0. For the setting “individual animal, vernier calipers, 40 mg/kg, in mm (unit assumed)”, the “L (tumor length)” value was 10.04 and 14.54 and 0.
